From patent US9635854B2, “Controlling red rice with mesotrione” (FMC Corporation, priority 2014, dated 2017)
Like-named read-outs stand apart in the source and are kept apart here.

Key:
[1] = tested on: Rice (Oryza sativa) 'Taggart'; conditions: for Percent rice injury Taggart: Oryza sativa (rice), in vivo
From the text: (§1) Rice (Oryza sativa) was planted in 6″ by 10″ fiber flats filled with sterile top soil. Five rows were made in each flat and the three rice varieties (′Cybonee, ‘Jupiter’, and ‘Taggart’) were planted in the center 3 rows and a row of red rice (Oryza sativa) was planted on either end of the flat. The flats were watered after planting. After application flats were placed in the greenhouse and lightly watered. […] The flats were moved to a greenhouse and watered and fertilized routinely. Studies were conducted using randomized complete block design with four replications. In both studies, visual percent red rice control and rice injury were recorded at 14, 21, and 28 days after treatment (DAT), using a scale of 0 (no control/injury) to 100 (complete plant death).

[2] = tested on: Rice (Oryza sativa) 'Jupiter'; conditions: for Percent rice injury Jupiter: Oryza sativa (rice), in vivo
From the text: as §1

[3] = tested on: Rice (Oryza sativa) 'Cybonee'; conditions: for Percent rice injury Cybonet: Cybonee, Oryza sativa (rice), in vivo
From the text: as §1

red rice (Oryza sativa) [4] = assay: Pre-emergent evaluation on flooded rice, red rice control; format: in vivo; conditions: 200 g ai/ha; for Percent red rice control: PRE, direct-seeded flooded rice
Procedure: (§2) Rice (Oryza sativa) crop varieties (‘Cybonee’, ‘Jupiter’, and ‘Taggart’) and red rice (Oryza sativa) were planted in 6 inch plastic pots containing sterile top soil. Eight to ten seeds of each species were seeded at 12 o'clock, 3 o'clock, 6 o'clock or 9 o'clock around the pot. The pots were watered after planting. […] The test solutions were applied using a compressed air track spray chamber at 30 gallons per acre using a Teejet 8001E nozzle at 40 PSI, three replicates per test rate. After treatment, the pots were watered lightly and transferred to trays in a greenhouse. After the plants were two inches in height the trays were flooded with water and maintained as such for 14 days. The trays were emptied of water and the pots were maintained by regular watering for 4 more days. At 14, 21 and 28 days after treatment (DAT) the plants were evaluated versus untreated control pots containing the same rice and weeds using a scale of 0% (no control) to 100% (complete plant death).

red rice (Oryza sativa) [5] = assay: Pre-emergent evaluation on dryland rice, red rice control; format: in vivo; conditions: 200 g ai/ha; for Percent red rice control: PRE, direct-seeded dryland rice
From the text: as §1

[6] = tested on: Rice (Oryza sativa) 'Taggart'; conditions: for Percent rice injury Taggart: in vivo
Procedure: as §2

[7] = tested on: Rice (Oryza sativa) 'Jupiter'; conditions: for Percent rice injury Jupiter: in vivo
Procedure: as §2

[8] = tested on: Rice (Oryza sativa) 'Cybonee'; conditions: for Percent rice injury Cybonet: in vivo
Procedure: as §2

SMILES: CC1(C)CON(Cc2ccccc2Cl)C1=O [Clomazone, clomazone]
- rice injury, 'Taggart' ([1]; PRE dryland rice, 200 g ai/ha): injured
- Percent rice injury Taggart ([1]; 14 days after treatment): 40 A %
- Percent rice injury Taggart ([1]; 21 days after treatment): 60 A %
- Percent rice injury Taggart ([1]; 28 days after treatment): 66 A %
- Percent rice injury Jupiter ([2]; 14 days after treatment): 31 A %
- Percent rice injury Jupiter ([2]; 21 days after treatment): 41 A %
- Percent rice injury Jupiter ([2]; 28 days after treatment): 44 A %
- rice injury, 'Jupiter' ([2]; PRE dryland rice, 200 g ai/ha): injured
- Percent rice injury Cybonet ([3]; 14 days after treatment): 35 A %
- Percent rice injury Cybonet ([3]; 21 days after treatment): 39 A %
- Percent rice injury Cybonet ([3]; 28 days after treatment): 43 A %
- rice injury, 'Cybonee' ([3]; PRE dryland rice, 200 g ai/ha): injured
- red rice control (red rice (Oryza sativa) [4]; PRE flooded rice): failed to control
- Percent red rice control (red rice (Oryza sativa) [4]; 14 DAT): 56 C %
- Percent red rice control (red rice (Oryza sativa) [4]; 21 DAT): 59 B %
- Percent red rice control (red rice (Oryza sativa) [4]; 28 DAT): 52 B %
- red rice control (red rice (Oryza sativa) [5]; PRE dryland rice): failed to control
- Percent red rice control (red rice (Oryza sativa) [5]; 14 DAT): 38 C %
- Percent red rice control (red rice (Oryza sativa) [5]; 21 DAT): 50 D %
- Percent red rice control (red rice (Oryza sativa) [5]; 28 DAT): 46 C %
- rice injury, 'Taggart' ([6]; PRE flooded rice, 200 g ai/ha): injured
- Percent rice injury Taggart ([6]; Taggart, Oryza sativa (rice), 21 days after treatment): 76 A %
- Percent rice injury Taggart ([6]; Taggart, Oryza sativa (rice), 28 days after treatment): 71 A %
- Percent rice injury Taggart [6]: 58 A %
- Percent rice injury Jupiter ([7]; Jupiter, Oryza sativa (rice), 21 days after treatment): 86 A %
- Percent rice injury Jupiter ([7]; Jupiter, Oryza sativa (rice), 28 days after treatment): 79 A %
- rice injury, 'Jupiter' ([7]; PRE flooded rice, 200 g ai/ha): injured
- Percent rice injury Jupiter [7]: 60 A %
- Percent rice injury Cybonet ([8]; Cybonee, Oryza sativa (rice), 21 days after treatment): 58 A %
- Percent rice injury Cybonet ([8]; Cybonee, Oryza sativa (rice), 28 days after treatment): 49 AB %
- rice injury, 'Cybonee' ([8]; PRE flooded rice, 200 g ai/ha): injured
- Percent rice injury Cybonet [8]: 41 A %
